Values quoted from earlier work as cited in US11407830B2, “Methods of treating cancer with anti-PD-1 antibodies” (TESARO, INC., priority 2017, dated 2022).

Columns and labels:
[1] = test system: PARP activity in various cell lines
[2] = test system: non-small-cell lung cancer, melanoma, and renal-cell cancer; conditions: Phase I clinical trial

Compound | IC50 ([1]; read-out: IC50, PARP activity in cells, hydrogen peroxide DNA damage) [nM] | IC90 ([1]; read-out: inhibitory concentration at 90% of control (IC90), PARP activity in cells, hydrogen peroxide DNA damage) [nM] | tumor response [2]
NC(=O)c1cccc2cn(-c3ccc([C@@H]4CCCNC4)cc3)nc12 [Niraparib, (3 S)-3-[4-{7-(aminocarbonyl)-2H-indazol-2-yl}phenyl]piperidine] | ~4 | ~50 | 
nivolumab: monoclonal antibody targeting PD-1 |  |  | complete or partial responses
